Source: ChEMBL document CHEMBL1127134, “Synthesis and antibacterial activity of (1R,5R,6R)-2-tert-butyl-6-(1-hydroxyethyl)oxapenem-3-carboxylic acid” (1993)

What was measured:
Assay type in all cases: functional
[1] = system: Clostridium butyricum; test: Minimum inhibitory concentration required for the antibacterial activity against Clostridium butyricum
[2] = system: Staphylococcus aureus; test: Minimum inhibitory concentration required for the antibacterial activity against Staphylococcus aureus 25085
[3] = system: Escherichia coli; test: Minimum inhibitory concentration required for the antibacterial activity against Escherichia coli F14
[4] = system: Bacteroides fragilis; test: Minimum inhibitory concentration required for the antibacterial activity against Bacillus fragilis 1560 I/82
[5] = system: Phocaeicola vulgatus; test: Minimum inhibitory concentration required for the antibacterial activity against Bacillus valgatus Kr III
[6] = system: Escherichia coli; test: Minimum inhibitory concentration required for the antibacterial activity against Escherichia coli 4322
[7] = system: Escherichia coli; test: Minimum inhibitory concentration required for the antibacterial activity against Escherichia coli 183/58
[8] = system: Staphylococcus aureus; test: Minimum inhibitory concentration required for the antibacterial activity against Staphylococcus aureus 86 Innsbruck
[9] = system: Providencia sp.; test: Minimum inhibitory concentration required for the antibacterial activity against Providencia 12012
[10] = system: Serratia; test: Minimum inhibitory concentration required for the antibacterial activity against Serratia 16001
[11] = system: Proteus vulgaris; test: Minimum inhibitory concentration required for the antibacterial activity against Proteus vulgaris 1017
[12] = system: Staphylococcus aureus; test: Minimum inhibitory concentration required for the antibacterial activity against Staphylococcus aureus 25470
[13] = system: Staphylococcus aureus; test: Minimum inhibitory concentration required for the antibacterial activity against Staphylococcus aureus 90 Innsbruck
[14] = system: Fusobacterium necrophorum; test: Minimum inhibitory concentration required for the antibacterial activity against Sphaerophorus necrophorus Kr
[15] = system: Enterococcus; test: Minimum inhibitory concentration required for the antibacterial activity against Enterococcus 9790
[16] = system: Staphylococcus aureus; test: Minimum inhibitory concentration required for the antibacterial activity against Staphylococcus aureus 25768
[17] = system: Clostridium perfringens; test: Minimum inhibitory concentration required for the antibacterial activity against Clostridium perfringens 24071
[18] = system: Peptostreptococcus anaerobius; test: Minimum inhibitory concentration required for the antibacterial activity against Peptostrept. anaer. Kr I
[19] = system: Morganella morganii; test: Minimum inhibitory concentration required for the antibacterial activity against Proteus Morganii 932
[20] = system: Parabacteroides distasonis; test: Minimum inhibitory concentration required for the antibacterial activity against Bacillus distasonis Kr
[21] = system: Enterobacter cloacae; test: Minimum inhibitory concentration required for the antibacterial activity against Enterobacter cloacae 56 US
[22] = system: Enterobacter cloacae; test: Minimum inhibitory concentration required for the antibacterial activity against Enterobacter cloacae 5744
[23] = system: Pseudomonas aeruginosa; test: Minimum inhibitory concentration required for the antibacterial activity against Pseudomonas aeruginosa 7451
[24] = system: Staphylococcus aureus; test: Minimum inhibitory concentration required for the antibacterial activity against Staphylococcus aureus 25697
[25] = system: Bacteroides fragilis; test: Minimum inhibitory concentration required for the antibacterial activity against Bacillus fragilis GA I - 0558 Japan
[26] = system: Klebsiella; test: Minimum inhibitory concentration required for the antibacterial activity against Klebsiella 57USA
[27] = system: Peptostreptococcus anaerobius; test: Minimum inhibitory concentration required for the antibacterial activity against Peptostrept. anaer. DSM 20357
[28] = system: Parabacteroides distasonis; test: Minimum inhibitory concentration required for the antibacterial activity against Bacillus distasonis Heidelberg
[29] = system: Enterococcus faecalis; test: Minimum inhibitory concentration required for the antibacterial activity against Streptococcus faecalis 113
[30] = system: Bacteroides fragilis; test: Minimum inhibitory concentration required for the antibacterial activity against Bacillus fragilis 2034/35 Kr 43
[31] = system: Staphylococcus aureus; test: Minimum inhibitory concentration required for the antibacterial activity against Staphylococcus aureus 133
[32] = system: Bacteroides fragilis; test: Minimum inhibitory concentration required for the antibacterial activity against Bacillus fragilis 06688
[33] = system: Clostridium perfringens; test: Minimum inhibitory concentration required for the antibacterial activity against Clostridium perfringens 24072
[34] = system: Serratia; test: Minimum inhibitory concentration required for the antibacterial activity against Serratia 16002
[35] = system: Staphylococcus aureus; test: Minimum inhibitory concentration required for the antibacterial activity against Staphylococcus aureus 41h Belgium
[36] = system: Staphylococcus aureus; test: Minimum inhibitory concentration required for the antibacterial activity against Staphylococcus aureus 25463
[37] = system: Clostridium perfringens; test: Minimum inhibitory concentration required for the antibacterial activity against Clostridium perfringens 1024027
[38] = system: Peptostreptococcus anaerobius; test: Minimum inhibitory concentration required for the antibacterial activity against Peptostrept. anaer. 222 I/82
[39] = system: Staphylococcus aureus; test: Minimum inhibitory concentration required for the antibacterial activity against Staphylococcus aureus 13N Munchen
[40] = system: Enterococcus faecalis; test: Minimum inhibitory concentration required for the antibacterial activity against Streptococcus faecalis 27101
[41] = system: Pseudomonas aeruginosa; test: Minimum inhibitory concentration required for the antibacterial activity against Pseudomonas aeruginosa F41
[42] = system: Escherichia coli; test: Minimum inhibitory concentration required for the antibacterial activity against Escherichia coli T7
[43] = system: Klebsiella; test: Minimum inhibitory concentration required for the antibacterial activity against Klebsiella 1852
[44] = system: Staphylococcus aureus; test: Minimum inhibitory concentration required for the antibacterial activity against Staphylococcus aureus 77 Innsbruck
[45] = system: Staphylococcus aureus; test: Minimum inhibitory concentration required for the antibacterial activity against Staphylococcus aureus 4978 Israel
[46] = system: Bacteroides fragilis; test: Minimum inhibitory concentration required for the antibacterial activity against Bacillus fragilis 4891/91 Kr
[47] = system: Thomasclavelia ramosa; test: Minimum inhibitory concentration required for the antibacterial activity against Clostridium ramosum DSM 1402
[48] = system: Staphylococcus; test: Minimum inhibitory concentration required for the antibacterial activity against Staphylococcus E 25485
[49] = system: Enterococcus; test: Minimum inhibitory concentration required for the antibacterial activity against Enterococcus 27158
[50] = system: Bacteroides fragilis; test: Minimum inhibitory concentration required for the antibacterial activity against Bacillus fragilis Kr 1 TV
[51] = system: Bacteroides fragilis; test: Minimum inhibitory concentration required for the antibacterial activity against Bacillus fragilis 010848
[52] = system: Staphylococcus aureus; test: Minimum inhibitory concentration required for the antibacterial activity against Staphylococcus aureus 17N Munchen
[53] = system: Prevotella melaninogenica; test: Minimum inhibitory concentration required for the antibacterial activity against Bacillus melaninogenicus Kr
[54] = system: Clostridium sporogenes; test: Minimum inhibitory concentration required for the antibacterial activity against Clostridium sporogenes
[55] = system: Fusobacterium nucleatum; test: Minimum inhibitory concentration required for the antibacterial activity against Fusobacterium nucleatum DSM 20482
[56] = system: Klebsiella; test: Minimum inhibitory concentration required for the antibacterial activity against Klebsiella 63
[57] = system: Escherichia coli; test: Minimum inhibitory concentration required for the antibacterial activity against Escherichia coli Neumann
[58] = system: Peptoniphilus asaccharolyticus; test: Minimum inhibitory concentration required for the antibacterial activity against Peptococcus asacchar. DSM 20463
[59] = system: Providencia rettgeri; test: Minimum inhibitory concentration required for the antibacterial activity against Proteus rettgeri 1007
[60] = system: Clostridium septicum; test: Minimum inhibitory concentration required for the antibacterial activity against Clostridium septicum
[61] = system: Staphylococcus aureus; test: Minimum inhibitory concentration required for the antibacterial activity against Staphylococcus aureus 25464
[62] = system: Staphylococcus aureus; test: Minimum inhibitory concentration required for the antibacterial activity against Staphylococcus aureus 1756
[63] = system: Clostridium perfringens; test: Minimum inhibitory concentration required for the antibacterial activity against Clostridium perfringens DSM 756
[64] = system: Bacteroides fragilis; test: Minimum inhibitory concentration required for the antibacterial activity against Bacillus fragilis L 1168 Italien
[65] = system: Streptococcus pneumoniae; test: Minimum inhibitory concentration required for the antibacterial activity against Streptococcus pneumoniae 4959
[66] = system: Pseudomonas aeruginosa; test: Minimum inhibitory concentration required for the antibacterial activity against Pseudomonas aeruginosa 7053

**Q.** What does the source list for C[C@@H](O)[C@H]1C(=O)N2C(C(=O)[O-])=C(C(C)(C)C)O[C@H]12.[K+]?
**A.** MIC [1]: 2 µg/mL; MIC [2]: 1.56 µg/mL; MIC [3]: 16 µg/mL; MIC [4]: 2 µg/mL; MIC [5]: 1 µg/mL; MIC [6]: 2 µg/mL; MIC [7]: 1 µg/mL; MIC [8]: ≤ 0.78 µg/mL; MIC [9]: 4 µg/mL; MIC [10]: 64 µg/mL; MIC [11]: 1 µg/mL; MIC [12]: 50 µg/mL; MIC [13]: ≤ 0.78 µg/mL; MIC [14]: 1 µg/mL; MIC [15]: 2 µg/mL; MIC [16]: ≤ 0.78 µg/mL; MIC [17]: 0.5 µg/mL; MIC [18]: 2 µg/mL; MIC [19]: 2 µg/mL; MIC [20]: 1 µg/mL; MIC [21]: 16 µg/mL; MIC [22]: 32 µg/mL; MIC [23]: > 128 µg/mL; MIC [24]: 1.56 µg/mL; MIC [25]: 2 µg/mL; MIC [26]: 4 µg/mL; MIC [27]: 1 µg/mL; MIC [28]: 8 µg/mL; MIC [29]: 16 µg/mL; MIC [30]: 2 µg/mL; MIC [31]: 0.12 µg/mL; MIC [32]: 2 µg/mL; MIC [33]: 0.5 µg/mL; MIC [34]: 64 µg/mL; MIC [35]: 12.5 µg/mL; MIC [36]: 1.56 µg/mL; MIC [37]: 1 µg/mL; MIC [38]: 2 µg/mL; MIC [39]: 1.56 µg/mL; MIC [40]: 2 µg/mL; MIC [41]: > 128 µg/mL; MIC [42]: 2 µg/mL; MIC [43]: 16 µg/mL; MIC [44]: ≤ 0.78 µg/mL; MIC [45]: ≤ 0.78 µg/mL; MIC [46]: 2 µg/mL; MIC [47]: 1 µg/mL; MIC [48]: ≤ 0.06 µg/mL; MIC [49]: 16 µg/mL; MIC [50]: 2 µg/mL; MIC [51]: 2 µg/mL; MIC [52]: 1.56 µg/mL; MIC [53]: 0.5 µg/mL; MIC [54]: 0.5 µg/mL; MIC [55]: 0.5 µg/mL; MIC [56]: 4 µg/mL; MIC [57]: 2 µg/mL; MIC [58]: 0.5 µg/mL; MIC [59]: 2 µg/mL; MIC [60]: 2 µg/mL; MIC [61]: 3.12 µg/mL; MIC [62]: 2 µg/mL; MIC ([62]; Staphylococcus aureus, read-out: MIC): 1.56 µg/mL; MIC [63]: 1 µg/mL; MIC [64]: 2 µg/mL; MIC [65]: 0.25 µg/mL; MIC [66]: > 128 µg/mL
